# Results reported in patent US20220251039A1, “Diaryl-B-Lactam Compound and Preparation Method and Pharmaceutical Use Thereof” (Fudan University, priority 2016, published 2022).
# Entries after “also recorded” stand apart in the source; their conditions may differ.
# How the values were obtained:
# tubulin [1] = assay: Immunofluorescent analysis of tubulin morphology; format: cell-based, human; conditions: SKOV-3 cells, 24 h
# Description: After treatment with diluent (0.2% DMSO) or tested compounds at indicated concentrations for 24 h, SKOV-3 cells were fixed with methanol, permeabilized with 0.1% Triton X-100 in PBS and blocked by goat serum. Then the cells were incubated with a-tubulin antibody at 4° C. overnight, followed by incubation with Alexa 488 labeled secondary antibody (Jackson ImmunoResearch) at RT for 1 h. After being stained with DAPI, cells were examined and photographed with a Leica SP5 co-focal fluorescence microscope.
# tubulin [2] = assay: Immunoblotting analysis of polymerized/depolymerized tubulin; format: cell-based, human; conditions: Hela cells, 6 h
# Description: After being treated with diluent (0.2% DMSO), tested compound, CA-4 or PTX for 6 h, Hela cells were lysed with microtubulestabilizing buffer, containing 100 mM PIPES, pH 6.8, 1 mM MgCl2, 2 mM EGTA, 0.5% NP-40, 2 M glycerol, 5 μM PTX and protease inhibitors cocktail (Roche), and the lysate was centrifuged at 15,000 rpm for 15 min. Supernatant containing depolymerized tubulin was carefully collected, whereas pellet (polymerized tubulin) was further dissolved in SDS-lysis buffer (Beyotime, China). Equal amounts of supernatant and dissolved pellet were subjected to immunoblotting analysis as described above using a tubulin antibody (Proteintech).
# [3] = test system: p-histone H3, cyclin B1 and BuBR1; assay: Cell cycle associated proteins assay; format: cell-based, human; conditions: HeLa cells, 24 h, Western blot and qPCR
# Description: A. HeLa cells were treated with 69, 70, 97 or DMSO for 24 h. After being harvested, the cells were lysed, and the concentrations of total protein were determined by BCA protein assay kit (Beyotime, China). […] The membrane was blocked with 5% BSA in TBST for 1.5 h, then incubated overnight with specific primary antibodies (Proteintech) at 4° C. After being washed three times by TBST, the membrane was incubated with specific secondary antibodies (Abnova, Taipei, China) at room temperature for 2 h. Finally, chemiluminescent reagents (Millipore) were employed to detect the protein bands.
# (§1) B. Quantitative PCR assay: HeLa cells were treated with 69, 70 or 97. The expression level of mRNA of target proteins was tested with qPCR kit (Takara).
# KM mice = assay: Acute toxicity assay; format: in vivo
# Description: KM mice were housed individually in a specific pathogen free facility. Groups of mice (n=10 per group, half male and half female) were injected intraperitoneally once with various dosages of 69 (95, 70, 50, 35, 25 mg/kg), 70 (500, 425, 350, 275, 200 mg/kg), 97 (275, 200, 150, 125 and 100 mg/kg) or vehicle (8.3% cremohorp EL and 8.3% alcohol in PBS) as negative control, respectively. 69, 70 and 97 was dissolved in cremeohore EL and alcohol mixture (1:1, v/v) and further diluted with PBS (1:5, v/v). The death of mice were monitored daily and recorded up to 14 days after injection.
# A2780 cells = assay: Xenografts tumor growth assay in nude mice; format: in vivo, Balb/c nude mice; conditions: A2780 xenograft; for tumor growth in vivo: i.p. once every 2 days, 69 7.5 mg/kg, 70 12.5 mg/kg, 97 4 or 8 mg/kg; for H&E staining of liver, kidney and spleen / H&E staining of tumor sections (necrosis): treated groups
# Description: 6 weeks old female Balb/c nude mice were purchased from Shanghai Slac Laboratory Animal Co. Ltd. (Shanghai, China). 2*10^6 A2780 cells suspended in 0.2 mL PBS per mouse was injected subcutaneously into the nude mice. […] Administration of agents or vehicle, or agents and measurement of tumor volumes with a digital caliper was done once every 2 days. Tumor volumes were calculated as volume=shortest diameter (W)^2*longest diameter (L)*0.52. When the average tumor volumes of vehicle treated group reached 2000 mm^3 in diameter, the mice were sacrificed and the tumors were isolated and weighed. Visceral organs of the mice as well as solid tumors were further analyzed by H&E staining.
# cellular apoptosis = assay: Cell apoptosis analysis (Annexin V/PI); format: cell-based; conditions: 48 h, Annexin-V/PI flow cytometry
# Description: Cell apoptosis was detected using FITC Annexin V Apoptosis Detection Kit (BD Biosciences) according to manufacturer's instructions. Briefly, cells were incubated with indicated concentrations of 69, 70 and 97, CA-4 as positive control or diluent (0.2% DMSO) as negative control for 48 h. Then the cells were harvested, washed twice with PBS, and re-suspended in binding buffer. After being stained with Annexin-V and PI for 15 min in the dark place, cells were subjected to flow cytometry (Cytomics FC 500 MPL, Beckman Coulter) analysis. The results were indicated as mean values from three independent determinations.
# MDA-MB-231 cells = assay: Colony formation assay; format: cell-based, human; conditions: 48 h treatment, 7-10 days growth
# Description: 1000 MDA-MB-231 cells per well were seeded into 6-well plate at a single cell density and were cultured at 37° C. for 48 h. After being treated with indicated concentrations of 69, 70 and 97, CA-4 as positive control, or diluent (0.2% DMSO) as negative control for 48 h, the agents containing medium was replaced by fresh medium to allow cell growth for additional 7-10 days. Then the cells were fixed with methanol and stained with gentian violet for 30 min. The number of colonies which consisted of more than 50 cells were counted. The results were indicated as mean values from three independent determinations.
# [4] = test system: Bax, p53 and cleaved-PARP; assay: Expression level of apoptosis associated proteins; format: cell-based, human; conditions: HeLa cells, Western blot and qPCR
# Description: A. Western blotting: After being treated with candidate compound, cells were harvested and lysed. Then, the lysate was isolated by ultracentrifuge and quantified by BCA assay according to the protocol. After being denatured, equivalent protein of each sample was separated by SDS-PAGE gel and wet-transferred onto […] nitrocellulose membrane. After being blocked by PBS containing 5% skim milk, the membrane was incubated with primary antibody at 4° C. overnight and secondary antibody at room temperature for 2 h and then visualized by enhanced chemiluminescence kit (Thermo Fisher, USA), sequentially.
# as §1
structure (smiles),measurement,setting,value
"C=C1C(=O)N(c2cc(OC)c(OC)c(OC)c2)[C@H]1c1ccc(OC)c(O)c1 [Compound 1, (S)-4-(3-hydroxy-4-methoxyphenyl)-3-methylene-1-(3,4,5-trimethoxyphenyl)azetidin-2-one]",tubulin assembly (immunofluorescence),tubulin [1],significantly inhibit tubulin aggregation
same,polymerized tubulin (immunoblotting),tubulin [2],significantly inhibit tubulin aggregation
"COc1ccc([C@H]2[C@H](CO)C(=O)N2c2cc(OC)c(OC)c(OC)c2)cc1O [Compound 69, (3R,4R)-4-(3-hydroxy-4-methoxyphenyl)-3-(hydroxymethyl)-1-(3,4,5-trimethoxyphenyl)azetidin-2-one]",tubulin assembly (immunofluorescence),tubulin [1],significantly inhibit tubulin aggregation; also recorded: strongly inhibit tubulin assembly in cancer cells
same,"expression of p-histone H3, cyclin B1 and BuBR1",[3],"significantly promote the expression of phosphorylated histone H3, cyclin B1, and mitotic checkpoint protein BuBR1"
same,No. of dead mice 5-14 days,KM mice; 25 mg/kg i.p. once,0
same,No. of dead mice 1 day,KM mice; 25 mg/kg i.p. once,0
same,No. of dead mice 2 days,KM mice; 25 mg/kg i.p. once,0
same,No. of dead mice 3 days,KM mice; 25 mg/kg i.p. once,0
same,No. of dead mice 4 days,KM mice; 25 mg/kg i.p. once,0
same,No. of dead mice Total death,KM mice; 25 mg/kg i.p. once,0
same,Survival (%) on day 14,KM mice; 25 mg/kg i.p. once,100%
same,No. of dead mice 5-14 days,KM mice; 35 mg/kg i.p. once,0
same,No. of dead mice 1 day,KM mice; 35 mg/kg i.p. once,0
same,No. of dead mice 2 days,KM mice; 35 mg/kg i.p. once,0
same,No. of dead mice 3 days,KM mice; 35 mg/kg i.p. once,1
same,No. of dead mice 4 days,KM mice; 35 mg/kg i.p. once,0
same,No. of dead mice Total death,KM mice; 35 mg/kg i.p. once,1
same,Survival (%) on day 14,KM mice; 35 mg/kg i.p. once,90%
same,No. of dead mice 5-14 days,KM mice; 50 mg/kg i.p. once,0
same,No. of dead mice 1 day,KM mice; 50 mg/kg i.p. once,0
same,No. of dead mice 2 days,KM mice; 50 mg/kg i.p. once,0
same,No. of dead mice 3 days,KM mice; 50 mg/kg i.p. once,1
same,No. of dead mice 4 days,KM mice; 50 mg/kg i.p. once,0
same,No. of dead mice Total death,KM mice; 50 mg/kg i.p. once,1
same,Survival (%) on day 14,KM mice; 50 mg/kg i.p. once,90%
same,No. of dead mice 5-14 days,KM mice; 70 mg/kg i.p. once,1
same,No. of dead mice 1 day,KM mice; 70 mg/kg i.p. once,0
same,No. of dead mice 2 days,KM mice; 70 mg/kg i.p. once,0
same,No. of dead mice 3 days,KM mice; 70 mg/kg i.p. once,4
same,No. of dead mice 4 days,KM mice; 70 mg/kg i.p. once,2
same,No. of dead mice Total death,KM mice; 70 mg/kg i.p. once,7
same,Survival (%) on day 14,KM mice; 70 mg/kg i.p. once,30%
same,No. of dead mice 5-14 days,KM mice; 95 mg/kg i.p. once,1
same,No. of dead mice 1 day,KM mice; 95 mg/kg i.p. once,0
same,No. of dead mice 2 days,KM mice; 95 mg/kg i.p. once,0
same,No. of dead mice 3 days,KM mice; 95 mg/kg i.p. once,6
same,No. of dead mice 4 days,KM mice; 95 mg/kg i.p. once,1
same,No. of dead mice Total death,KM mice; 95 mg/kg i.p. once,8
same,Survival (%) on day 14,KM mice; 95 mg/kg i.p. once,20%
same,polymerized tubulin (immunoblotting),tubulin [2],significantly inhibit tubulin aggregation; also recorded: dramatically reduction of polymerized tubulin
same,tumor growth in vivo,A2780 cells,significantly inhibit tumor growth in vivo; also recorded: anti-tumor activities in vivo
same,"H&E staining of liver, kidney and spleen",A2780 cells,"no abnormal areas are observed in tissue staining of liver, kidney and spleen; also recorded: no detectable abnormalities were observed in liver, kidney and spleen"
same,H&E staining of tumor sections (necrosis),A2780 cells,cause tumor tissue to produce necrotic areas; also recorded: extensive areas of necrosis or cell death
same,cellular apoptosis,cellular apoptosis,significantly promote apoptosis; also recorded: significantly induce cellular apoptosis
same,colony formation,MDA-MB-231 cells,significantly inhibit the formation of colonies of cancer cells
same,"expression of Bax, p53 and cleaved-PARP",[4],"significantly promote the expression of the proapoptotic protein Bax, the tumor suppressor gene p53, and the cleaved DNA repair enzyme; also recorded: significantly induce the expression of Bax, p53 and cleaved-PARP"
"COc1ccc([C@H]2[C@@H](C)C(=O)N2c2cc(OC)c(OC)c(OC)c2)cc1O [Compound 70, (3R,4R)-4-(3-hydroxy-4-methoxyphenyl)-3-methyl-1-(3,4,5-trimethoxyphenyl)azetidin-2-one]",tubulin assembly (immunofluorescence),tubulin [1],significantly inhibit tubulin aggregation; also recorded: strongly inhibit tubulin assembly in cancer cells
same,"expression of p-histone H3, cyclin B1 and BuBR1",[3],"significantly promote the expression of phosphorylated histone H3, cyclin B1, and mitotic checkpoint protein BuBR1"
same,No. of dead mice 5-14 days,KM mice; 200 mg/kg i.p. once,0
same,No. of dead mice 1 day,KM mice; 200 mg/kg i.p. once,0
same,No. of dead mice 2 days,KM mice; 200 mg/kg i.p. once,0
same,No. of dead mice 3 days,KM mice; 200 mg/kg i.p. once,0
same,No. of dead mice 4 days,KM mice; 200 mg/kg i.p. once,0
same,No. of dead mice Total death,KM mice; 200 mg/kg i.p. once,0
same,Survival (%) on day 14,KM mice; 200 mg/kg i.p. once,100%
same,No. of dead mice 5-14 days,KM mice; 275 mg/kg i.p. once,1
same,No. of dead mice 1 day,KM mice; 275 mg/kg i.p. once,0
same,No. of dead mice 2 days,KM mice; 275 mg/kg i.p. once,0
same,No. of dead mice 3 days,KM mice; 275 mg/kg i.p. once,0
same,No. of dead mice 4 days,KM mice; 275 mg/kg i.p. once,1
same,No. of dead mice Total death,KM mice; 275 mg/kg i.p. once,2
same,Survival (%) on day 14,KM mice; 275 mg/kg i.p. once,80%
same,No. of dead mice 5-14 days,KM mice; 350 mg/kg i.p. once,0
same,No. of dead mice 1 day,KM mice; 350 mg/kg i.p. once,0
same,No. of dead mice 2 days,KM mice; 350 mg/kg i.p. once,0
same,No. of dead mice 3 days,KM mice; 350 mg/kg i.p. once,1
same,No. of dead mice 4 days,KM mice; 350 mg/kg i.p. once,0
same,No. of dead mice Total death,KM mice; 350 mg/kg i.p. once,1
same,Survival (%) on day 14,KM mice; 350 mg/kg i.p. once,90%
same,No. of dead mice 5-14 days,KM mice; 425 mg/kg i.p. once,0
same,No. of dead mice 1 day,KM mice; 425 mg/kg i.p. once,0
same,No. of dead mice 2 days,KM mice; 425 mg/kg i.p. once,0
same,No. of dead mice 3 days,KM mice; 425 mg/kg i.p. once,3
same,No. of dead mice 4 days,KM mice; 425 mg/kg i.p. once,0
same,No. of dead mice Total death,KM mice; 425 mg/kg i.p. once,3
same,Survival (%) on day 14,KM mice; 425 mg/kg i.p. once,70%
same,No. of dead mice 5-14 days,KM mice; 500 mg/kg i.p. once,0
same,No. of dead mice 1 day,KM mice; 500 mg/kg i.p. once,0
same,No. of dead mice 2 days,KM mice; 500 mg/kg i.p. once,0
same,No. of dead mice 3 days,KM mice; 500 mg/kg i.p. once,4
same,No. of dead mice 4 days,KM mice; 500 mg/kg i.p. once,0
same,No. of dead mice Total death,KM mice; 500 mg/kg i.p. once,4
same,Survival (%) on day 14,KM mice; 500 mg/kg i.p. once,60%
same,polymerized tubulin (immunoblotting),tubulin [2],significantly inhibit tubulin aggregation; also recorded: dramatically reduction of polymerized tubulin
same,tumor growth in vivo,A2780 cells,significantly inhibit tumor growth in vivo; also recorded: anti-tumor activities in vivo
same,"H&E staining of liver, kidney and spleen",A2780 cells,"no abnormal areas are observed in tissue staining of liver, kidney and spleen; also recorded: no detectable abnormalities were observed in liver, kidney and spleen"
same,H&E staining of tumor sections (necrosis),A2780 cells,cause tumor tissue to produce necrotic areas; also recorded: extensive areas of necrosis or cell death
same,cellular apoptosis,cellular apoptosis,significantly promote apoptosis; also recorded: significantly induce cellular apoptosis
same,colony formation,MDA-MB-231 cells,significantly inhibit the formation of colonies of cancer cells
same,"expression of Bax, p53 and cleaved-PARP",[4],"significantly promote the expression of the proapoptotic protein Bax, the tumor suppressor gene p53, and the cleaved DNA repair enzyme; also recorded: significantly induce the expression of Bax, p53 and cleaved-PARP"
